Data: ChEMBL document CHEMBL1151661, “Inhibitory effect of tannins on reverse transcriptase from RNA tumor virus” (J Nat Prod, 1985)
Calls of active or inactive are those of the source. No cut-off for these calls is given here.

Key:
[1] = tested on: Avian myeloblastosis virus; assay: Inhibition of AMV reverse transcriptase activity assessed as incorporation of dGMP in poly(rC)-oligo(dG) at 100 uM; set-up: scale not given: the % may be the effect or the level left
[2] = tested on: Avian myeloblastosis virus; assay: Inhibition of AMV reverse transcriptase activity assessed as incorporation of dGMP in poly(rC)-oligo(dG) at 1000 uM; set-up: scale not given: the % may be the effect or the level left
[3] = tested on: Avian myeloblastosis virus; assay: Inhibition of AMV reverse transcriptase activity assessed as incorporation of dTMP in poly(rA)-oligo(dT) at 1 uM; set-up: scale not given: the % may be the effect or the level left
[4] = tested on: Avian myeloblastosis virus; assay: Inhibition of AMV reverse transcriptase activity assessed as incorporation of dTMP in poly(rA)-oligo(dT) at 10 uM; set-up: scale not given: the % may be the effect or the level left
[5] = tested on: Avian myeloblastosis virus; assay: Inhibition of AMV reverse transcriptase activity assessed as incorporation of dTMP in poly(rA)-oligo(dT) at 100 uM; set-up: scale not given: the % may be the effect or the level left
[6] = tested on: Avian myeloblastosis virus; assay: Inhibition of AMV reverse transcriptase activity assessed as incorporation of dTMP in poly(rA)-oligo(dT) at 1000 uM; set-up: scale not given: the % may be the effect or the level left
[7] = tested on: Avian myeloblastosis virus; assay: Inhibition of AMV reverse transcriptase activity assessed as incorporation of dGMP in poly(rC)-oligo(dG) at 0.1 uM; set-up: scale not given: the % may be the effect or the level left
[8] = tested on: Avian myeloblastosis virus; assay: Inhibition of AMV reverse transcriptase activity assessed as incorporation of dGMP in poly(rC)-oligo(dG) at 1 uM; set-up: scale not given: the % may be the effect or the level left
[9] = tested on: Avian myeloblastosis virus; assay: Inhibition of AMV reverse transcriptase activity assessed as incorporation of dGMP in poly(rC)-oligo(dG) at 10 uM; set-up: scale not given: the % may be the effect or the level left
[10] = tested on: Avian myeloblastosis virus; assay: Inhibition of AMV reverse transcriptase activity assessed as incorporation of dTMP in poly(rA)-oligo(dT) at 0.1 uM; set-up: scale not given: the % may be the effect or the level left
[11] = tested on: Avian myeloblastosis virus; assay: Inhibition of AMV reverse transcriptase activity assessed as DNA synthesis treated at 100 uM after 5 mins of initiation of DNA synthesis
[12] = organism: Bos taurus; assay: Inhibition of calf thymus DNA polymerase-alpha activity using activated calf thymus DNA at 10 uM
[13] = organism: Bos taurus; assay: Inhibition of calf thymus DNA polymerase-alpha activity using activated calf thymus DNA at 1000 uM

Row | SMILES | Activity [1] | Activity [2] | Activity [3] | Activity [4] | Activity [5] | Activity [6] | Activity [7] | Activity [8] | Activity [9] | Activity [10] | Activity [11] | Activity [12] | Activity [13]
1 | O=C(OC[C@H]1O[C@@H](OC(=O)c2cc(O)c(O)c(O)c2)[C@H](OC(=O)c2cc(O)c(O)c(O)c2)[C@@H](OC(=O)c2cc(O)c(O)c(O)c2)[C@@H]1OC(=O)c1cc(O)c(O)c(O)c1)c1cc(O)c(O)c(O)c1 | 27% | 15% | 39% | 30% | 25% | 7% | 80% | 62% | 44% | 67% | – | – | –
2 | O=C[C@H](OC(=O)c1cc(O)c(O)c(O)c1)[C@@H](OC(=O)c1cc(O)c(O)c(O)c1)[C@@H]1OC(=O)c2cc(O)c(O)c(O)c2-c2c(cc(Oc3c(C(=O)O[C@@H](C=O)[C@@H](OC(=O)c4cc(O)c(O)c(O)c4)[C@@H]4OC(=O)c5cc(O)c(O)c(O)c5-c5c(cc(O)c(O)c5O)C(=O)OC[C@H]4O)cc(O)c(O)c3O)c(O)c2O)C(=O)OC[C@H]1O | 10% | 15% | 19% | 4% | 6% | 6% | 105% | 76% | 22% | 82% | – | – | –
3 | O=C(O)C[C@@H]1C(=O)O[C@H]2[C@@H]3OC(=O)c4cc(O)c(O)c(O)c4-c4c(cc(O)c(O)c4O)C(=O)OC[C@H]2O[C@@H](OC(=O)c2cc(O)c(O)c(O)c2)[C@@H]3OC(=O)c2cc(O)c(O)c3c2[C@H]1[C@H](O)C(=O)O3 | 68% | 8% | 90% | 48% | 31% | 6% | 94% | 67% | 74% | 106% | – | – | –
4 | COc1cc2c[n+](C)c3c4cc5c(cc4ccc3c2cc1OC)OCO5 | 5% | 2% | 102% | 11% | 1% | 1% | 116% | 85% | 88% | 85% | – | – | –
5 | O=C(O[C@H]1O[C@@H]2COC(=O)c3cc(O)c(O)c(O)c3-c3c(cc(O)c(O)c3O)C(=O)O[C@H]2[C@@H]2OC(=O)c3cc(O)c(O)c(O)c3-c3c(cc(O)c(O)c3O)C(=O)O[C@@H]12)c1cc(O)c(O)c(Oc2c(C(=O)O[C@H]3O[C@@H]4COC(=O)c5cc(O)c(O)c(O)c5-c5c(cc(O)c(O)c5O)C(=O)O[C@H]4[C@@H]4OC(=O)c5cc(O)c(O)c(O)c5-c5c(cc(O)c(O)c5O)C(=O)O[C@@H]34)cc(O)c(O)c2O)c1 | 5% | 6% | 27% | 20% | 19% | 2% | 80% | 68% | 7% | 86% | – | – | –
6 | Oc1cc(O)c2c(c1)O[C@H](c1ccc(O)c(O)c1)[C@H](O)[C@H]2c1c(O)cc(O)c2c1O[C@H](c1ccc(O)c(O)c1)[C@H](O)C2 | 64% | 9% | 116% | 97% | 98% | 55% | 85% | 93% | 80% | 102% | – | – | –
7 | O=c1oc2c(O)c(O)cc3c(=O)oc4c(O)c(O)cc1c4c23 | 20% | 3% | 77% | 45% | 18% | 0% | 71% | 80% | 49% | 93% | – | – | –
8 | O=C[C@@H]1OC(=O)c2c3c(O)c(O)c(O)c2-c2c(cc(O)c(O)c2O)C(=O)O[C@H]1[C@@H]1OC(=O)c2c(c(O)c(O)c(O)c2-c2c(cc(O)c(O)c2O)C(=O)O[C@H]1COC(=O)c1cc(O)c(O)c(O)c1)O[C@H]1[C@@H]2OC(=O)c4cc(O)c(O)c(O)c4-c4c(cc(O)c(O)c4O)C(=O)O[C@H]2[C@H](OC(=O)c2cc(O)c(O)c(O)c2)O[C@@H]1CO3 | 14% | 20% | 24% | 4% | 5% | 3% | 106% | 73% | 22% | 66% | – | – | –
9 | O=C(O[C@@H]1O[C@@H]2COC(=O)c3cc(Oc4c(C(=O)O[C@@H]5O[C@@H]6COC(=O)c7cc(O)c(O)c(O)c7-c7c(cc(O)c(O)c7O)C(=O)O[C@H]6[C@H](OC(=O)c6cc(O)c(O)c(O)c6)[C@H]5OC(=O)c5cc(O)c(O)c(O)c5)cc(O)c(O)c4O)c(O)c(O)c3-c3c(cc(O)c(O)c3O)C(=O)O[C@H]2[C@H](OC(=O)c2cc(O)c(O)c(O)c2)[C@H]1OC(=O)c1cc(O)c(O)c(O)c1)c1cc(O)c(O)c(O)c1 | 12% | 2% | 16% | 7% | 5% | 6% | 111% | 54% | 12% | 55% | – | – | –
10 | O=C1O[C@@H]2[C@@H](OC(=O)c3cc(O)c(O)c(O)c3-c3c1cc(O)c(O)c3O)[C@H](O)O[C@@H]1COC(=O)c3cc(O)c(O)c(O)c3-c3c(O)c(O)c4oc(=O)c5c(c(O)c(O)c6oc(=O)c3c4c65)-c3c(cc(O)c(O)c3O)C(=O)O[C@@H]21 | 9% | 4% | 22% | 19% | 11% | 2% | 85% | 76% | 18% | 85% | – | – | –
11 | O=C1O[C@H]2[C@@H]3OC(=O)c4cc(O)c(O)c(O)c4-c4c(cc(O)c(O)c4O)C(=O)OC[C@H]2O[C@@H](OC(=O)c2cc(O)c(O)c(O)c2)[C@@H]3OC(=O)c2cc(O)c(O)c3c2[C@@H]2C1=CC(=O)[C@](O)(O3)C2(O)O | 15% | 12% | 39% | 12% | 6% | 6% | 103% | 93% | 62% | 89% | Active | inactive | Active
12 | O=C(O[C@@H]1O[C@@H]2COC(=O)c3cc(O)c(O)c(O)c3-c3c(cc(O)c(O)c3O)C(=O)O[C@H]2[C@H](OC(=O)c2cc(O)c(O)c(O)c2)[C@H]1OC(=O)c1cc(O)c(O)c(O)c1)c1cc(O)c(O)c(Oc2c(C(=O)O[C@H]3O[C@@H]4COC(=O)c5cc(O)c(O)c(O)c5-c5c(cc(O)c(O)c5O)C(=O)O[C@H]4[C@H](OC(=O)c4cc(O)c(O)c(O)c4)[C@H]3OC(=O)c3cc(O)c(O)c(O)c3)cc(O)c(O)c2O)c1 | 8% | 1% | 25% | 11% | 4% | 1% | 102% | 68% | 13% | 73% | – | – | –
13 | O=C(O[C@@H]1O[C@@H]2COC(=O)c3cc(O)c(O)c(O)c3-c3c(cc(O)c(O)c3O)C(=O)O[C@H]([C@H]1O)[C@@H]2O)c1cc(O)c(O)c(O)c1 | 30% | 0% | 92% | 88% | 25% | 3% | 92% | 72% | 64% | 88% | – | – | –
14 | O=C1OC[C@H]2O[C@@H](O)[C@H](O)[C@@H](O)[C@@H]2OC(=O)c2cc(O)c(O)c(O)c2-c2c(O)c(O)c3oc(=O)c4c(c(O)c(O)c5oc(=O)c2c3c54)-c2c1cc(O)c(O)c2O | 31% | 6% | 62% | 35% | 8% | 1% | 105% | 109% | 64% | 119% | – | – | –
15 | O=C(O)C[C@H]1C(=O)O[C@H]2[C@H](OC(=O)c3cc(O)c(O)c(O)c3)[C@@H](OC(=O)c3cc(O)c(O)c4c3[C@H]1[C@H](O)C(=O)O4)[C@H](OC(=O)c1cc(O)c(O)c(O)c1)O[C@@H]2COC(=O)c1cc(O)c(O)c(O)c1 | 27% | 1% | 71% | 22% | 24% | 8% | 75% | 67% | 46% | 109% | – | – | –
16 | O=C(O)c1cc(O)c(O)c(O)c1 | 91% | 98% | 93% | 75% | 75% | 78% | 122% | 103% | 99% | 84% | – | – | –
17 | O=C1OC[C@H]2OC(O)[C@@H]3OC(=O)c4cc(O)c(O)c(O)c4-c4c(cc(O)c(O)c4O)C(=O)O[C@H]3[C@@H]2OC(=O)c2cc(O)c(O)c(O)c2-c2c1cc(O)c(O)c2O (stereo partly drawn) | 7% | 10% | 51% | 15% | 17% | 4% | 80% | 73% | 41% | 88% | – | – | –
